In patent US6875448B1, “Method of intracellular sustained-release of drug and preparations” (Chugai Seiyaku Kabushiki Kaisha, priority 1999, dated 2005):

Test system: Ltk− cells
Assay: Efficiency of introduction into cells with the aid of Ca2+ indicator
Type: cell-based, mouse
Settings: intracellular calcium elevated by calcium ionophore
Experimental: To the nanospheres (red fluorescent), calcium green-1 acetoxymethyl derivative was added as a fluorescent Ca^2+ indicator to give a concentration of 20 mM and mixed at room temperature for 1 hour so that it was adsorbed on the nanospheres. The unadsorbed calcium green-1 was removed by dialysis (Spectra/Por Membranes MWCO:12-14000) and buffer replacement was performed to prepare liposomes and fusogenic liposomes. 2×10^5 Ltk^−cells that had been seeded on 6-well plates one day before were washed with PBS(−) and exposed for 1 minute to the action of the calcium green-1 acetoxymethyl derivative, calcium green-1 adsorbed nanospheres, liposomes or fusogenic liposomes which were all conditioned to have the same fluorescence intensity of 2700 (Ex. 488 nm; Em, 534 nm). Thereafter, the cells were washed with PBS(−), cultured in an Eagle's MEM medium for 1 hour, stripped from the medium with trypsin and subjected to the measurement of fluorescence intensity (Ex, 488 nm; Em, 534 nm). Thereafter, a calcium ionophore/DMSO solution was added to give a concentration of 0.1 mg/mL and fluorescence intensity was measured at Ex=488 nm and Em=534 nm.

calcium green-1 acetoxymethyl derivative
fluorescence of calcium green-1 in cells: barely detectable
